{"source": "patent US6887869B2", "about": "“Mikanolide derivatives, their preparation and therapeutic uses” (Societe de Conseils de Recherches et d'Applications …, priority 2001, dated 2005)", "key": {"[1]": {"test_system": "DNA polymerase of E. Coli (Klenow DNA polymerase enzyme)", "assay": "Incorporation of deoxycytidine 5'-[alpha32P]-triphosphate into a DNA in the presence of DNA polymerase in an acellular system", "assay_type": "biochemical", "conditions": "concentration 100 μg/ml; labelled dCTP, 10 minutes at 37°, vs control", "protocol": "Incorporation of Deoxycytidine 5′-[alpha^32P]-triphosphate into a DNA in the Presence of DNA Polymerase in an Acellular System\nLabelling of the DNA is carried out on a DNA fragment which incorporates nucleotides by way of the activity of the DNA polymerase enzyme. From these nucleotides, the dCTP is labelled with radioactive phosphorus (^32P).\nPlasmidal DNA (pc DNA 3, invitrogen, Netherlands) is diluted to a concentration of 2 ng in 45 μl of TE solution (10 mM Tris-HCl, pH 8, 1 mM EDTA) and denatured by heating to 100° C. for 10 minutes before being replaced directly in ice. The denatured DNA is placed in the tube which contains the buffer solution of dATP, dGTP, dTTP, the Klenow DNA polymerase enzyme and the random primers (Rediprime II random prime labelling system, RPN 1633, RPN 1634, Amersham pharmacia biotech). 2 μl of Redivue deoxycytidine 5′-[alpha^32P]-triphosphate (250 μCi specific activity Amersham, Orsay, France) is added to start the reaction. The reaction is carried out in the presence or absence of the compound to be tested for 10 minutes at 37°. […] 10 μL is counted in 5 ml of scintillator (Instage1 plus and scintillation counter Packard, Rungis, France). The results are expressed as a percentage of the inhibition of incorporation of the labelled nucleotide in the sample with respect to the control: 100−[(DPM of the sample treated/control DPM)×100]."}, "HT29 tumor cells": {"test_system": "HT29 tumor cells", "assay": "Incorporation of tritiated thymidine into DNA of HT29 cells in exponential growth phase", "assay_type": "cell-based, human", "conditions": "3 hours treatment", "protocol": "(§1) DU-145 (human prostate cancer cells), HT29 (cancer of the colon) and Mia-PaCa2 (human pancreatic cancer cells) were acquired from the American Tissue Culture Collection (Rockville, Md., USA).\nIncorporation of Thymidine Labelled with Tritium into DNA Cells in Exponential Growth Phase\nHT29 cells are seeded in 96-well plates (culturPlate-96, Packard, Rungis, France) (4000 cells per well) with the medium (DME, Gibco BRL, Cergy-Pontoise, France) complemented with 10% of foetal calf serum, Gibco BRL, Cergy-Pontoise, France). On day 3, the medium is removed and replaced with medium containing the tritiated thymidine (5′-thymidine TRK.328, 1 mCi, 0.6 μCi/well, Amersham, Orsay, France) with or without the compound. The treatments are carried out for 3 hours. The medium is then removed and the cells are washed twice with 20 μl of PBS (Gibco BRL, Cergy-Pontoise, France). The lysis solution (SDS 1.25%, EDTA 5 mM) is added for 10 minutes at ambient temperature, then 75 μl of scintillating liquid (microscint 40, Packard, Rungis, France) is added. The plates are read using Topcount (Packard, Rungis, France). These tests are carried out in duplicate and the results are expressed with respect to the incorporation of the labelled nucleotide in the sample treated with the compound over the incorporation of the labelled nucleotide in the control sample (sample DPM/control DPM)."}, "[2]": {"test_system": "Mia-PaCa2 (human pancreatic cancer cells)", "assay": "Measurement of cell proliferation (WST1), Mia-PaCa2", "assay_type": "cell-based", "conditions": "MIA PaCa-2, Mia-Paca2, 96 hours treatment, read-out: IC50 inhibitory concentration, proliferation of Mia-Paca2 cell lines", "protocol": "as §1\n(§2) Measurement of Cell Proliferation\n(§3) The cells placed in 80 μl of Dulbecco's modified Eagle medium (Gibco-BRL, Cergy-Pontoise, France) completed with 10% of foetal calf serum inactivated by heating (Gibco-BRL, Cergy-Pontoise, France), 50000 units/l of penicillin and 50 mg/l streptomycin (Gibco-BRL, Cergy-Pontoise, France), and 2 mM of glutamine (Gibco-BRL, Cergy-Pontoise, France) were seeded on a 96-well plate on day 0. The cells were treated on day 1 for 96 hours with increasing concentrations of each of the compounds to be tested. At the end of the of this period, quantification of the cell proliferation is evaluated by a calorimetric test based on the cleavage of the tetrazolium salt WST1 by mitochondrial dehydrogenases in viable cells leading to the formation of formazan (Boehringer Mannheim, Meylan, France). These tests are carried out in duplicate with 8 determinations per concentration tested. The products are solubilised in dimethylsulphoxide (DMSO) at 10^−2 M and finally used in culture with 0.5% DMSO."}, "[3]": {"test_system": "DU-145 (human prostate cancer cells)", "assay": "Measurement of cell proliferation (WST1), DU-145", "assay_type": "cell-based", "conditions": "DU-145, 96 hours treatment, read-out: IC50 inhibitory concentration, proliferation of DU-145 cell lines", "protocol": "as §1, §2, §3"}}}
{"smiles": "C[C@H]1C(=O)O[C@H]2C[C@]3(C)O[C@@H]3[C@@H]3O[C@@H]3C3=C[C@@H](OC3=O)[C@@H]21", "note": "[Dihydromikanolide, dihydromikanolide, reference compound]", "values": [{"measurement": "% inhibition of incorporation", "setting": "[1]", "result": "77 ± 11", "unit": "%"}, {"measurement": "incorporation of tritiated thymidine (sample dpm/control dpm)", "setting": "HT29 tumor cells; 25 μg/ml", "result": 0.98}, {"measurement": "incorporation of tritiated thymidine (sample dpm/control dpm)", "setting": "HT29 tumor cells; 50 μg/ml", "result": 0.22}, {"measurement": "incorporation of tritiated thymidine (sample dpm/control dpm)", "setting": "HT29 tumor cells; 100 μg/ml", "result": 0.14}]}
{"smiles": "CC1C(=O)OC2CC3(C)OC3C(O[Si](C)(C)C(C)(C)C)C(N(C)C)C3=CC(OC3=O)C21", "note": "(stereo not drawn) [Example 16, 11-(tert-butyldimethylsiloxy)-12-dimethylamino-3,8-dimethyl-5,9,15-trioxatetracyclo[11.2.1.0^2,6.0^8,10]hexadec-13(16)-ene-4,14-dione]", "values": [{"measurement": "% inhibition of incorporation", "setting": "[1]", "result": "70 ± 8", "unit": "%"}, {"measurement": "IC50", "setting": "[2]", "result": "≤ 30", "unit": "µM"}, {"measurement": "incorporation of tritiated thymidine (sample dpm/control dpm)", "setting": "HT29 tumor cells; 25 μg/ml", "result": 0.71}, {"measurement": "incorporation of tritiated thymidine (sample dpm/control dpm)", "setting": "HT29 tumor cells; 50 μg/ml", "result": 0.58}, {"measurement": "incorporation of tritiated thymidine (sample dpm/control dpm)", "setting": "HT29 tumor cells; 100 μg/ml", "result": 0.52}, {"measurement": "IC50", "setting": "[3]", "result": "≤ 30", "unit": "µM"}]}
{"smiles": "CC1C(=O)OC2CC3(C)OC3C(OC(=O)Nc3csc4ccccc34)C(N(C)C)C3CC(OC3=O)C21", "note": "(stereo not drawn) [Example 43, 8-(dimethylamino)-3,10a-dimethyl-2,6-dioxodecahydro-4,7-methenofuro[3,2-c]oxireno[f]oxacycloundecin-9-yl 1-benzothien-3-ylcarbamate]", "values": [{"measurement": "IC50", "setting": "[2]", "result": "≤ 30", "unit": "µM"}, {"measurement": "IC50", "setting": "[3]", "result": "≤ 30", "unit": "µM"}]}
